Results from US20250109120A1, “INDOLINE DERIVATIVES FOR TREATMENT AND/OR PREVENTION OF TUMOR OR CELL PROLIFERATIVE AND FIBROSIS DISEASES” (NATIONAL TAIWAN UNIVERSITY, priority 2023, published 2025).

Key:
other CDKs and kinases = test: Kinase selectivity panel of 54 kinases (SelectScreen); assay type: biochemical; details: 150 nM, 54-kinase panel
Method: (§1) Compounds were tested for kinase inhibitory activity using the Thermo Fisher SelectScreen service (www.thermofisher.com/selectscreen). For CDK8, the LanthaScreen Eu Binding Assay was used. Briefly, the assay employed utilizes a fluorescent tracer to a given kinase. This is used to detect the addition of an anti-tag antibody. When the tracer and antibody bind to the targeted kinase, the Forster resonance energy transfer is measured. When a kinase inhibitor is added to the assay, the tracer/kinase binding will be disrupted, producing low FRET detection and indicating kinase inhibitory activity. Evaluation of kinase activity of additional kinase targets utilized the LanthaScreen binding assay or the Z′-Lyte activity assay provided by Thermo Fisher SelectScreen service. The IC50 values were determined using sequential doses, and the inhibition curves were provided by Thermo Fisher Scientific.
(§2) Compound k was evaluated for kinase selectivity. […] The cytotoxicity of compound k was then assessed in DU145 and PC-3 cells, human prostate cancer cell lines isolated from patients with brain and bone metastasis, respectively. […] To further examine whether compound k still inhibited CDK8/19 inhibition in cells, we assessed whether compound treatment in DU145/PC-3 androgen-independent prostate cancer cells could inhibit STAT1-S727 phosphorylation. […]

CDK19 = CDK19 (Homo sapiens (Human), UniProt Q9BWU1); test: as above; assay type: biochemical; details: 150 nM, 54-kinase panel
Method: as §1, §2

Chain of CDK19 (Q9BWU1 whole entry): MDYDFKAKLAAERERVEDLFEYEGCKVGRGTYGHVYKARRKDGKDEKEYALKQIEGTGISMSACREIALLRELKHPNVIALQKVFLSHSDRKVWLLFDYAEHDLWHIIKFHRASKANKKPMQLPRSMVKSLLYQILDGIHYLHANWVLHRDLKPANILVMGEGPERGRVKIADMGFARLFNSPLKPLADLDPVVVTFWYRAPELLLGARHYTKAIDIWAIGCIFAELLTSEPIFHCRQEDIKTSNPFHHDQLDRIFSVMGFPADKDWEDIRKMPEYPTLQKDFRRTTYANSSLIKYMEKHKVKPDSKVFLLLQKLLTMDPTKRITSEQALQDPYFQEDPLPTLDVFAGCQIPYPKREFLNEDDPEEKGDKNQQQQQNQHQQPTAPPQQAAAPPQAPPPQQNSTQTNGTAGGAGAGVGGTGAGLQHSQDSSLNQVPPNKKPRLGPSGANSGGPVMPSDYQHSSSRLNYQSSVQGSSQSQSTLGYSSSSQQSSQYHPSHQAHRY

**Q.** With CNC(=O)c1cc(Oc2ccc(NS(=O)(=O)c3ccc4c(c3)C(=C(C)C)C(=O)N4)c(F)c2)ccn1 [Compound k, 4-(3-Fluoro-4-((2-oxo-3-(propan-2-ylidene)indoline)-5-sulfonamido)phenoxy)-N-methylpicolinamide] as the compound, how does the “effect on other CDKs and kinases” value (other CDKs and kinases) read?
**A.** no significant effect

**Q.** What about the CDK19 inhibition percentage (CDK19) of the same compound?
**A.** 40%
